pEC50: −log10 of the molar value. Where two headings read alike, the source gives them in different places.

In general, pEC50 refers to the EC50 on a negative log10 scale, so that one unit is a factor of ten.

In assay [1] the target is T1, h-TGR5 (Homo sapiens, UniProt Q8TDU6).
T1 construct: expressed in transfected cells
T1 sequence (Q8TDU6 1-330): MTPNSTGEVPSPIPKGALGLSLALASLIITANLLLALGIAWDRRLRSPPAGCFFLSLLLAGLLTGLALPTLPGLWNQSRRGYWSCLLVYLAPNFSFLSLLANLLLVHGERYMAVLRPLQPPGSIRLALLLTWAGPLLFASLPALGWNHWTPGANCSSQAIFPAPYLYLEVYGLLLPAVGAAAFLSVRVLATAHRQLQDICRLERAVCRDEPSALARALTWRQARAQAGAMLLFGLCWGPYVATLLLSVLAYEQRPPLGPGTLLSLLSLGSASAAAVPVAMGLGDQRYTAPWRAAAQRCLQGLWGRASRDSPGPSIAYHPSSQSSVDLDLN
Briefly: TGR5 cAMP Assay using Cisbio cAMP Dynamic2 htrf kit (hTGR5CRE-luc HEK 293 cells). Type of assay: cell-based. In outline: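 […], 4000 hTGR5CRE-luc HEK 293 cells per well, with 0.5 mM IBMX and d2-cAMP, were incubated 30 min at room temperature with compounds in 8-point half-log series, in quadruplicate.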

Assay [2] has as its target T2, human TGR5 (h-TGR5) (Homo sapiens, UniProt Q8TDU6).
T2 construct: expressed in transfected cells
T2 sequence (Q8TDU6 1-330): T1 sequence (Q8TDU6 1-330)
The assay is described as follows: TGR5/CRE-Luciferiase Assay (HEK 293 hTGR5/CRE-Luc cells). Type of assay: cell-based. In outline:
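HEK293 cells stably carrying hTGR5 and a CRE-luciferase reporter were exposed to serially diluted compounds (diluted in DMEM with 5% DMSO) for 6 h. Cells were then lysed in luciferase buffer, luminescence was read, and EC50 values were derived from dose-response curves.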

[3] abbreviates: h-TGR5 cAMP EC50, Table 1, read-out: cAMP (EC50).
Where [4] appears, read: h-TGR5 CRE-Luc EC50, Table 1, read-out: CRE-Luc (EC50).

Turning to `CC(C)(c1ccc(S(N)(=O)=O)c(Cl)c1)c1cnc(SCc2ccc(Cl)c(-c3nnn[nH]3)c2)n1-c1ccc(F)cc1` [2-chloro-4-{1-[2-({[4-chloro-3-(1H-tetrazol-5-yl)phenyl]methyl}thio)-1-(4-fluorophenyl)-1H-imidazol-5-yl]-1-methylethyl}benzenesulfonamide], the pEC50 in assay [1] (setting [3]) and in assay [2] (setting [4]) was 6.00 to 7.00 throughout.

Consider `COc1cc(C(C)(C)c2cnc(SCc3ccc(S(=O)(=O)NC(=O)NN4CCCC4)cc3Cl)n2-c2ccc(F)c(F)c2)ccc1Cl` [3-chloro-4-({[5-{1-[4-chloro-3-(methyloxy)phenyl]-1-methylethyl}-1-(3,4-difluorophenyl)-1H-imidazol-2-yl]thio}methyl)-N-[(pyrrolidin-1-ylamino)carbonyl]benzenesulfonamide], for which the pEC50 in assay [1] (setting [3]) and in assay [2] (setting [4]) was 6.00 to 7.00 each time.

Take `COc1cc(C(C)(C)c2cnc(SCc3c(F)cc(OCCNC(=N)N)cc3Cl)n2-c2ccc(F)cc2)ccc1Cl` [1-(2-{[3-chloro-4-({[5-{1-[4-chloro-3-(methyloxy)phenyl]-1-methylethyl}-1-(4-fluorophenyl)-1H-imidazol-2-yl]thio}methyl)-5-fluorophenyl]oxy}ethyl)guanidine]: the pEC50 in assay [1] (setting [3]) and in assay [2] (setting [4]) was over 7.00 each time.

In the case of `CC(C)(c1ccc(F)c(F)c1)c1cnc(SCc2cc(C(=O)O)ccc2Cl)n1-c1ccc(F)cc1` [4-chloro-3-[({5-[1-(3,4-difluorophenyl)-1-methylethyl]-1-(4-fluorophenyl)-1H-imidazol-2-yl}thio)methyl]benzoic acid], the pEC50 in assay [1] (setting [3]) and in assay [2] (setting [4]) was 6.00 to 7.00 each time.

For the molecule `CC(C)(c1ccc(Cl)c(Cl)c1)c1cnc(SCC2CCCN(c3nnn[nH]3)C2)n1-c1ccc(F)cc1` (centres unmarked) [3-[({5-[1-(3,4-dichlorophenyl)-1-methylethyl]-1-(4-fluorophenyl)-1H-imidazol-2-yl}thio)methyl]-1-(1H-tetrazol-5-yl)piperidine], the pEC50 in assay [1] (setting [3]) and in assay [2] (setting [4]) was 5.00 to 6.00 each time.

As for `CC(C)(c1ccc(Cl)c(Cl)c1)c1cnc(CCc2c(F)cccc2Cl)n1-c1ccc(F)cc1` [2-[2-(2-chloro-6-fluorophenyl)ethyl]-5-[1-(3,4-dichlorophenyl)-1-methylethyl]-1-(4-fluorophenyl)-1H-imidazole], the pEC50 in assay [1] (setting [3]) and in assay [2] (setting [4]) was 6.00 to 7.00 in each case.

With “4-({[5-{1-[4-chloro-3-(methyloxy)phenyl]-1- methylethyl}-1-(4-fIuorophenyl)-1H-imidazol- 2-yl]thio}methyl)-3,5-difluoro-N-[(pyrrolidin- 1-ylamino)carbonyl]benzenesulfonamide”, the pEC50 in assay [1] (setting [3]) and in assay [2] (setting [4]) was over 7.00 in each case.

In the case of `COc1cc(C(C)(C)c2cnc(SCc3ccc(S(=O)(=O)NC(=O)NCC(C)(C)O)cc3Cl)n2-c2ccc(F)cc2)ccc1Cl` [3-chloro-4-({[5-{1-[4-chloro-3-(methyloxy)phenyl]-1-methylethyl}-1-(4-fluorophenyl)-1H-imidazol-2-yl]thio}methyl)-N-{[(2-hydroxy-2-methylpropyl)amino]carbonyl} benzenesulfonamide], the pEC50 in assay [1] (setting [3]) and in assay [2] (setting [4]) was 6.00 to 7.00 in each case.

As for `CC(=O)NS(=O)(=O)c1ccc(CSc2ncc(C(C)(C)c3ccc(Cl)c(Cl)c3)n2-c2ccc(F)cc2)c(Cl)c1` [N-({3-chloro-4-[({5-[1-(3,4-dichlorophenyl)-1-methylethyl]-1-(4-fluorophenyl)-1H-imidazol-2-yl}thio)methyl]phenyl}sulfonyl)acetamide], the pEC50 in assay [1] (setting [3]) and in assay [2] (setting [4]) was 6.00 to 7.00 each time.

Consider `CC(C)(c1ccc2cccnc2c1)c1nnc(SCc2c(F)cccc2Cl)n1-c1ccc(F)cc1` [Example 47], for which the pEC50 is over 7.00 in assay [1] (hTGR5CRE-luc HEK 293 cells, htrf cAMP, Table 2, read-out: h-TGR5 cAMP EC50 (cAMP)) and over 7.00 in assay [2] (HEK 293 hTGR5/CRE-Luc cells, 6 hours incubation, luciferase activity, Table 2, read-out: h-TGR5CRE-Luc EC50 (CRE-Luc)).

As to `CC(C)(c1ccc(Cl)c(Cl)c1)c1cnc(SCc2ccc(F)c(OCC(=O)O)c2)n1-c1ccc(F)cc1` [({5-[({5-[1-(3,4-dichlorophenyl)-1-methylethyl]-1-(4-fluorophenyl)-1H-imidazol-2-yl}thio)methyl]-2-fluorophenyl}oxy)acetic acid], the pEC50 in assay [1] (setting [3]) and in assay [2] (setting [4]) was 6.00 to 7.00 in each case.

Regarding `COc1cc(-n2c(C(C)(C)c3ccc(S(N)(=O)=O)cc3)cnc2SCc2c(F)cc(C(=O)O)cc2F)ccc1F` [4-{[(5-{1-[4-(aminosulfonyl)phenyl]-1-methylethyl}-1-[4-fluoro-3-(methyloxy)phenyl]-1H-imidazol-2-yl)thio]methyl}-3,5-difluorobenzoic acid], the pEC50 in assay [1] (setting [3]) and in assay [2] (setting [4]) was 6.00 to 7.00 each time.

`CC(C)(c1ccc(Cl)c(Cl)c1)c1cnc(SCc2ccc(F)cc2Cl)n1-c1cccnc1` [3-(2-{[(2-chloro-4-fluorophenyl)methyl]thio}-5-[1-(3,4-dichlorophenyl)-1-methylethyl]-1H-imidazol-1-yl)pyridine]: the figures for the pEC50 in assay [1] (setting [3]) and in assay [2] (setting [4]) were 5.00 to 6.00 and 6.00 to 7.00, respectively.

`CC(C)(c1ccc(Cl)c(Cl)c1)c1cnc(SCc2ccc(S(=O)(=O)NC(=O)NN3CCCC3)cc2Cl)n1-c1ncc(F)cc1F` [3-chloro-4-[({5-[1-(3,4-dichlorophenyl)-1-methylethyl]-1-(3,5-difluoropyridin-2-yl)-1H-imidazol-2-yl}thio)methyl]-N-[(pyrrolidin-1-ylamino)carbonyl]benzenesulfonamide]: the pEC50 was 5.00 to 6.00 in assay [1] (setting [3]) and 6.00 to 7.00 in assay [2] (setting [4]).

Take `CC(C)(c1ccc(F)c(F)c1)c1cnc(SCC2CCN(S(C)(=O)=O)CC2)n1-c1ccc(F)cc1` [4-[({5-[1-(3,4-difluorophenyl)-1-methylethyl]-1-(4-fluorophenyl)-1H-imidazol-2-yl}thio)methyl]-1-(methylsulfonyl)piperidine]: the pEC50 in assay [1] (setting [3]) was 6.00 to 7.00; in assay [2] (setting [4]), over 7.00.

As for `COc1cc(C(C)(C)c2cnc(SCc3c(F)cc(C#CCNC(=N)N)cc3F)n2-c2ccc(F)cc2)ccc1Cl` [1-{3-[4-({[5-{1-[4-chloro-3-(methyloxy)phenyl]-1-methylethyl}-1-(4-fluorophenyl)-1H-imidazol-2-yl]thio}methyl)-3,5-difluorophenyl]prop-2-yn-1-yl}guanidine], the pEC50 in assay [1] (setting [3]) and in assay [2] (setting [4]) was over 7.00 throughout.

For the molecule “N-2-({[3-chloro-4-({[5-{1-[4-chloro-3- (methyloxy)phenyl]-1-methylethyl}-1-(4- fluorophenyl)-1H-imidazol-2-yl]thio}methyl)- 5-fluorophenyl]amino}carbonyl)-L-arginine”, the pEC50 in assay [1] (setting [3]) and in assay [2] (setting [4]) was over 7.00 throughout.

With `COc1cc(C(C)(C)c2cnc(SCc3c(F)cc(OCCNC(=N)N)cc3F)n2-c2ccc(F)cc2)ccc1Cl` [1-(2-{[4-({[5-{1-[4-chloro-3-(methyloxy)phenyl]-1-methylethyl}-1-(4-fluorophenyl)-1H-imidazol-2-yl]thio}methyl)-3,5-difluorophenyl]oxy}ethyl)guanidine], the pEC50 in assay [1] (setting [3]) and in assay [2] (setting [4]) was over 7.00 in each case.

Turning to `CC(C)(c1ccc(Cl)c(Cl)c1)c1cnc(SCc2ccc(F)c(C(=O)NCC(=O)O)c2)n1-c1ccc(F)cc1` [N-({5-[({5-[1-(3,4-dichlorophenyl)-1-methylethyl]-1-(4-fluorophenyl)-1H-imidazol-2-yl}thio)methyl]-2-fluorophenyl}carbonyl)glycine], the pEC50 in assay [1] (setting [3]) and in assay [2] (setting [4]) was 6.00 to 7.00 each time.

Values taken from patent publication US8785488B2 (Exelixis Patent Company LLC, priority 2009, dated 2014).
